Reference: patent publication US20250188113A1, “HIGH PURITY NON-ANIMAL DERIVED TUDCA” (SANDHILL ONE, LLC, priority 2021, published 2025)

Columns and labels:
[1] = DVS mass change (moisture sorption); type: physicochemical
[2] = Crystallinity of Pattern L upon drying (XRPD); type: physicochemical; details: dried in a 50° C. oven under −29.5 in Hg for 3 h
Experimental: Pattern L was prepared by the slurry method. In this experiment, 205.4 mg of solid commercial-grade plant derived TUDCA was mixed with 2.2 mL of IPAc:MeOH (7.3:2.9 vol.) in a 4 mL vial at 50° C. The mixture was sonicated for 1 h and stirred for 15 min at 400 rpm, after which it was filtered and analyzed by XRPD. […] As this pattern was a possible hydrate, it was placed in a humidity chamber at 55% RH to see if the crystallinity would increase. The yield was 114.6 mg […].

SMILES	DVS mass change 5-95% RH (wt. %) [1] [wt. %]	also measured
CC(C)NC(C)C.C[C@H](CCC(=O)O)[C@H]1CC[C@H]2[C@@H]3C(=O)C[C@@H]4CC(=O)CC[C@]4(C)[C@H]3CC[C@]12C [Diisopropylamine salt, diisopropylamine salt of 3,7-DKCA]	2.53	
C[C@H](CCC(=O)O)[C@H]1CC[C@H]2[C@@H]3C(=O)C[C@@H]4CC(=O)CC[C@]4(C)[C@H]3CC[C@]12C.NCCN [Ethylenediamine salt, ethylenediamine salt of 3,7-DKCA]	19.60	
CC(CCC(=O)NCCS(=O)(=O)O)C1CCC2C3C(O)CC4CC(O)CCC4(C)C3CCC12C.N=C(N)NCCCC(N)C(=O)O [Pattern 1-A (L-arginine), L-arginine TUDCA]		DVS mass change 2-80% RH (wt. %) ([1]; 2-80% RH): 2.91 wt. %
C[C@H](CCC(=O)NCCS(=O)(=O)O)[C@H]1CC[C@H]2[C@@H]3[C@@H](O)C[C@@H]4C[C@H](O)CC[C@]4(C)[C@H]3CC[C@]12C [Pattern A, Tauroursodeoxycholic acid]		DVS mass change 2-95% RH (wt. %) ([1]; 2-95% RH): 0.96 wt. %
C[C@H](CCC(=O)NCCS(=O)(=O)O)[C@H]1CC[C@H]2[C@@H]3[C@@H](O)C[C@@H]4C[C@H](O)CC[C@]4(C)[C@H]3CC[C@]12C [Pattern L, Tauroursodeoxycholic acid]		Crystallinity upon drying [2]: decrease
CC(C)(C)N.C[C@H](CCC(=O)O)[C@H]1CC[C@H]2[C@@H]3C(=O)C[C@@H]4CC(=O)CC[C@]4(C)[C@H]3CC[C@]12C [tert-Butylamine salt, tert-butylamine salt of 3,7-DKCA]	10.89	
